Tests used:
[1] = test system: Pseudomonas aeruginosa PAO1; experiment: Growth inhibition screening of planktonic cultures (OD550/600); type: cell-based; parameters: key: (+++) full inhibition; (++) partial inhibition; (+) growth retardation; -: (−) no effect; conditions: P. aeruginosa PAO1, 50 and 100 μM compound added at T1, OD550/600 followed 10 h, 37°C
Procedure: (§1) Planktonic cultures of selected pathogens (S. pneumoniae R6, S. pyogenes ^T, Staphylococcus aureus ^T, Escherichia coli DH10B, and Pseudomonas aeruginosa PAO1 strains) on early logarithmic-phase (T1) were assayed for their sensitivity to a broad range of DICAM compounds, as indicated in Table 1. Their bacteriostatic or lytic effect was first tested by measuring the variation of the OD550/600 as a function of time (10 h) when (50/100 μM) DICAMs were added, compared to untreated controls. The screening results, summarized in Table 1, evidenced that a potent antimicrobial activity may exist even when the negative charge of the peptide was higher than in the prototype compounds.
(§2) Susceptibility to DICAMs was first tested by growth-inhibition assays at 50 and 100 μM of compound. Briefly, working solutions at 5 mM or 10 mM DICAM in pure DMSO were prepared from DICAM stocks (40 mM in pure DMSO) and diluted with fresh culture medium to 5× the desired final concentration. Aliquots (50 µL) of these solutions were added to 200 µL of bacterium cultures grown to early exponential phase (OD550/600 c. a. 0.15–0.2 in sterile 96-well plates (Cultek, Spain). Incubation continued for 10 h at 37°C and turbidity (OD550/600) values were measured every 20 min to monitor growth and lysis, using a VersaMax microplate reader (Molecular Devices; United Kingdom). Next, the activity dependence on DICAM’s dose was examined by measuring the turbidity of treated and untreated cultures as a function of time. Also, the decay of bacterial viability (CFU/mL) at selected times of treatment was assessed by colony counting on LB-agar or TSA plates after overnight incubation at 37°C. By default, 10 μL of 10-fold serially diluted samples were plated, which set the lower detection limit at 10^2 CFU/mL (10^1 CFU/mL when 100 μL of the undiluted sample was seeded).

Escherichia coli DH10B = experiment: as above; type: cell-based; parameters: key: (+++) full inhibition; (++) partial inhibition; (+) growth retardation; -: (−) no effect; conditions: E. coli DH10B, 50 and 100 μM compound added at T1, OD550/600 followed 10 h, 37°C
Procedure: as §1, §2

Staphylococcus aureus T = experiment: as above; type: cell-based; parameters: key: (+++) full inhibition; (++) partial inhibition; (+) growth retardation; -: (−) no effect; conditions: S. aureus T, 50 and 100 μM compound added at T1, OD550/600 followed 10 h, 37°C
Procedure: as §1, §2

Streptococcus pyogenes T = experiment: as above; type: cell-based; parameters: key: (+++) full inhibition; (++) partial inhibition; (+) growth retardation; -: (−) no effect; conditions: S. pyogenes T, 50 and 100 μM compound added at T1, OD550/600 followed 10 h, 37°C
Procedure: as §1, §2

[2] = test system: Streptococcus pneumoniae R6; experiment: Growth inhibition / lysis screening of planktonic cultures (OD550/600); type: cell-based; parameters: key: (+++) full inhibition; (++) partial inhibition; (+) growth retardation; -: (−) no effect; conditions: S. pneumoniae R6, 50 and 100 μM compound added at early logarithmic phase (T1), OD550/600 followed 10 h, 37°C
Procedure: as §1, §2

[3] = RP-HPLC retention time used to determine hydrophobicity; type: physicochemical; conditions: analytical RP-HPLC, C18 Sunfire column (4.6 mm × 150 mm, 3.5 μm); A = 0.05% TFA in water, B = acetonitrile; 10% to 100% B in 20 min then isocratic 100% B 10 min; 217 and 254 nm; used as measure of hydrophobicity
Procedure: The purity of the lipopeptides was checked by analytical RP-HPLC on an Agilent Infinity instrument equipped with a Diode Array and a C18 Sunfire column (4.6 mm × 150 mm, 3.5 μm). As mobile phase A:B mixtures were used, where A = 0.05% TFA in water and B = acetonitrile. The samples were analyzed at 217 and 254 nm in a gradient from 10% of B to 100% of B in 20 min followed by isocratic 100% of B in 10 min.
Retention times were used to determine the hydrophobicity ([Neubauer et al., 2020]). HRMS (EI+) was carried out in an Agilent 6,520 Accurate-Mass Q-TOF LC/MS spectrometer using water/acetonitrile mixtures. Results can be found in Supplementary Section S3, S4.

[4] = Calcein release from LUVs, all tested compositions; conditions: 10 μM DICAM, 25°C, vesicle buffer pH 7.4, calcein release
Procedure: (§3) LUVs were prepared for calceine liberation assays as described ([Chongsiriwatana and Barron, 2009]). Lipid composition (mole %) of LUVs was: POPG (100), POPG:CL (80:20), POPG:CL:DOPE ([…]), and POPG:CL:GlcDAG (75:5:20). Briefly, the nitrogen-dried lipid mixture was dissolved at 1.25 mM with 100 mM calceine in vesicle buffer (10 mM Tris, 140 mM NaCl, 0.5 mM EDTA, pH 7.4) followed by five thaw-freeze cycles. Calceine-entrapped LUVs were prepared by extrusion through 100 nm polycarbonate membranes (Avanti Polar Lipids). Non-entrapped calceine was separated from LUVs by gel filtration on a Sephacryl® S200-HR column (Sigma). LUVs permeabilization was monitored at 25°C by fluorescence emission at 550 nm (λex = 480 nm) as a function of time in a Fluoromax-4 spectrofluorometer (Horiba, France) using agitation. Signal stabilization of samples (1,500 µL vesicle buffer plus 45 µL LUVs) was recorded for 5 min before 10 µM final DICAM addition, and calcein release was monitored for a maximum of 20 min. After incubation, samples were solubilized in Triton X-100 (0.025%) and the fluorescence signal recorded thereafter was used to normalize the entire data set. Solubilization of DICAM-untreated LUVs in Triton X-100 was used as a positive control. No perturbation was detected in controls containing DMSO.

S. pyogenes T membrane [5] = experiment: Membrane depolarization, DiSC3(5); type: cell-based, Streptococcus pyogenes; conditions: S. pyogenes T in BHI, 37°C
Procedure: (§4) Permeation and depolarization of S. pyogenes ^T membrane by DICAMs were assayed with the fluorescent probes SYTOX Green and DiSC3(5), respectively, in a Varioskan Flash microplate reader (Thermo Scientific; Spain) using FluoroNunc 96-well plates (Thermo Scientific; Spain). For permeation assays, cells were grown to an OD550 ≈ 0.3, washed once with PBS pH 7.2 (3,800 × g, 7 min, room temperature), and adjusted to a final OD550 ≈ 0.4 (∼10^8 CFU/mL) with the same buffer before mixing in the dark with SYTOX Green (5 µM final concentration). One hundred µL of this suspension was dispensed per plate well and the signal stabilization was monitored for 15 min (λex = 485 nm; λem = 520 nm). Then, 100 µL of two-fold serially diluted lipopeptide samples was added and changes in fluorescence intensity were registered for 60 min at 37°C. SYTOX Green (900 Da) binds to intracellular DNA when the cell membrane is damaged, thereby increasing fluorescence intensity ([Roth et al., 1997]). Positive controls (100% membrane permeabilization) were carried out by adding Titron X-100 (0.01% final concentration) to untreated bacterial samples ([Rathinakumar et al., 2009]). For membrane depolarization assays, 180 µL of an OD550 ≈ 0.2 culture (BHI; ≈ 10^7 CFU/mL) supplemented with DiSC3(5) (1 µM final concentration) was distributed per well, and signal stabilization was registered for 30 min (λex = 622 nm; λem = 670 nm) ([Te Winkel et al., 2016]). Subsequently, 20 µL of a two-fold serial dilution of lipopeptide in culture medium was added, and fluorescence intensity was recorded for 60 min at 37°C. Partition of DiSC3(5) to the surface of polarized cells decreases the probe fluorescence, and its release, caused by membrane depolarization, results in an increase in fluorescence. […] The background signal of controls with bacterial cells without the fluorescent probe, as well as the dye fluorescence in the presence of the tested compounds without bacteria, were also registered. No change in the fluorescence intensity of the probes occurred upon DICAM addition in the absence of bacterial cells.

[6] = Calcein release from LUVs; conditions: 10 μM DICAM, 25°C, vesicle buffer pH 7.4, calcein release
Procedure: as §3

S. pyogenes T membrane [7] = experiment: Membrane permeation, SYTOX Green; type: cell-based, Streptococcus pyogenes; conditions: S. pyogenes T in PBS pH 7.2, 37°C
Procedure: as §4

Substance: Asn- Pro -NH-C18H37 · HCl [DICAM 13]
- Growth halt or lysis (50/100 μM), Pa [1]: -
- Growth halt or lysis (50/100 μM), Ec (Escherichia coli DH10B): -
- Growth halt or lysis (50/100 μM), Sa T (Staphylococcus aureus T): -
- Growth halt or lysis (50/100 μM), Spy T (Streptococcus pyogenes T): +
- Growth halt or lysis (50/100 μM), Spn [2]: -
- Retention time [3]: 20.18 min
- Permeation of model membranes (LUVs), result in words [4]: able to permeate all tested model membranes

Substance: Asn- Pro -Tyr(Bzl)-NH-C18H37 ·HCl [DICAM 6]
- Growth halt or lysis (50/100 μM), Pa [1]: -
- Growth halt or lysis (50/100 μM), Ec (Escherichia coli DH10B): -
- Growth halt or lysis (50/100 μM), Sa T (Staphylococcus aureus T): -
- Growth halt or lysis (50/100 μM), Spy T (Streptococcus pyogenes T): -
- Membrane depolarization (DiSC3(5)), result in words (S. pyogenes T membrane [5]): no depolarization
- Permeation of DOPE:POPG:CL (80:15:5) LUVs, result in words [6]: particularly effective
- Membrane permeation (SYTOX Green), result in words (S. pyogenes T membrane [7]): no depolarization or membrane permeation
- Growth halt or lysis (50/100 μM), Spn [2]: -
- Retention time [3]: 22.10 min

— PMC11329928, “Design, synthesis and structure-activity relationship (SAR) studies of an unusual class of non-cationic fatty amine-tripeptide conjugates as novel synthetic antimicrobial agents” (Frontiers in Pharmacology, 2024)
